Assay [1] has as its system pancreatic cancer cell MiaPaCa-2. Description: Cytotoxicity assay, MTT staining. The assay is classed as cell-based. The following applies: Homo sapiens, MIA PaCa-2, MiaPaCa-2, 10 nM, 48 h. The protocol: (§1) Cytotoxicity assay of PEGylated irinotecan E10-1 (wherein the polyethylene glycol component is derived from E4-1) was performed using MTT staining. A blank control group containing no drugs but only culture medium, a positive control group containing irinotecan, and an experimental group containing PEGylated irinotecan (E10-1) were respectively set up. The drug concentration of the positive control group and experimental group was 10 nM, with 6 replicate wells each, and the assay was repeated three times. Six types of cancer cells were selected as in vitro cancer cell models: human colon cancer cell COLO205, human colon adenocarcinoma cell HT29, human lung adenocarcinoma cell A549, pancreatic cancer cell MiaPaCa-2, human ovarian cancer cell A2780, and human ovarian adenocarcinoma cell OVCAR-3.
(§2) Cells were inoculated onto a 96-well plate at a density of 1×10^4 cells/well, with 100 µL of cell suspension added to each well. After the inoculation, the cells were incubated in a cell culture incubator at 37°C, 4% CO2 for 24 h. The old culture medium was aspirated, and then 100 µL of culture medium containing 10 nM E10-1 was added to each experimental group, 100 µL of culture medium containing 10 nM irinotecan was added to each positive control group, and 100 µL of fresh culture medium was added to the blank control group. After further incubation for 48 h, 20 µL of 5 mg/mL MTT in PBS buffer was added to each well. After incubating the cancer cells with MTT for 4 h, the mixture of culture medium and MTT buffer was aspirated, and then DMSO (150 µL/well) was added to dissolve the blue-purple crystalline product of formazan in viable cells. The 96-well plate was gently shaken until the crystalline product was fully dissolved, and then a microplate reader was used to measure the absorbance at 490 nm. [formula]

The subject of assay [2] is human colon cancer cell COLO205. Description: Cytotoxicity assay, MTT staining. The class given is cell-based. The note with it: COLO 205, COLO205, 10 nM, 48 h. The protocol:
as §1, §2

Assay [3] concerns human colon adenocarcinoma cell HT29. Description: Cytotoxicity assay, MTT staining. The assay is classed as cell-based. The note with it: HT-29, HT29, 10 nM, 48 h. The protocol: as §1, §2
Assay [4] relates to human ovarian cancer cell A2780. Description: Cytotoxicity assay, MTT staining. The following applies: A2780, 10 nM, 48 h. The class given is cell-based. The protocol:
as §1, §2

In assay [5] the test system is human ovarian adenocarcinoma cell OVCAR-3. Description: Cytotoxicity assay, MTT staining. The assay is classed as cell-based. The following applies: OVCAR-3, 10 nM, 48 h. The protocol: as §1, §2
The subject of assay [6] is human lung adenocarcinoma cell A549. Description: Cytotoxicity assay, MTT staining. The assay is classed as cell-based. The following applies: A549, 10 nM, 48 h. The method, then: as §1, §2
For assay [7], the system named is H22 mouse liver cancer cells. Description: Anti-tumor efficacy in vivo (transplanted solid tumor, tumor weight). The following applies: H22 subcutaneous tumor in mice, tail vein injection on days 2 and 7 post-inoculation, tumors weighed after 2 weeks of administration. The method, then: The transplantation of animal tumors was adopted as the experimental method, with 6 mice per group, and H22 mouse liver cancer cells were inoculated subcutaneously into the right axilla of the mice to form solid tumors. Single-dose administrations via tail vein injection were performed on days 2 and 7 post-inoculation, respectively. After 2 weeks of administration, the mice were sacrificed via cervical dislocation, and the tumors were excised and weighed. Tumor Inhibition Rate = [G-H/G]*100% (G represents the average tumor weight of the blank control group, H represents the average tumor weight of the treatment group). Table 4. Results of Anti-tumor Effect

The viability is a read-out of living cells in per cent, often relative to untreated cells. Regarding `CCc1c2c(nc3ccc(OC(=O)N4CCC(N5CCCCC5)CC4)cc13)-c1cc3c(c(=O)n1C2)COC(=O)[C@]3(O)CC` [irinotecan], the viability at 0.01 µM in assay [1] is 76%; in assay [2], 76%; in assay [3], 74%; in assay [4] it was 73%; in assay [5], 75%; in assay [6], 70%. In assay [7], the “Tumor Inhibition Rate” value was determined as 30.3%.

Source of the values: patent publication EP4563620A1, “THREE-ARM POLYETHYLENE GLYCOL DERIVATIVE CONTAINING AMINO ACID RESIDUES” (Xiamen Sinopeg Biotech Co., Ltd., priority 2022, dated 2024).
